# From patent US20230257396A1, “MACROCYCLES AND THEIR USE” (BLOSSOMHILL THERAPEUTICS, INC., priority 2020, published 2023)
# Changes are numbered by the printed parent chain.
# Key:
# Assay in all cases: KINOMEscan kinase binding assay (Eurofins/DiscoveRx), % Ctrl
# Conditions in all cases: 1 μM
# [1] = target: T1, kinases (Homo sapiens, UniProt P00519, F317L)
# T1 construct: purchased Eurofins/DiscoveRx; host or cells: E. coli BL21-derived host (T7 phage display) for most kinases; HEK-293 for the rest
# T1 sequence (P00519 whole entry F317L): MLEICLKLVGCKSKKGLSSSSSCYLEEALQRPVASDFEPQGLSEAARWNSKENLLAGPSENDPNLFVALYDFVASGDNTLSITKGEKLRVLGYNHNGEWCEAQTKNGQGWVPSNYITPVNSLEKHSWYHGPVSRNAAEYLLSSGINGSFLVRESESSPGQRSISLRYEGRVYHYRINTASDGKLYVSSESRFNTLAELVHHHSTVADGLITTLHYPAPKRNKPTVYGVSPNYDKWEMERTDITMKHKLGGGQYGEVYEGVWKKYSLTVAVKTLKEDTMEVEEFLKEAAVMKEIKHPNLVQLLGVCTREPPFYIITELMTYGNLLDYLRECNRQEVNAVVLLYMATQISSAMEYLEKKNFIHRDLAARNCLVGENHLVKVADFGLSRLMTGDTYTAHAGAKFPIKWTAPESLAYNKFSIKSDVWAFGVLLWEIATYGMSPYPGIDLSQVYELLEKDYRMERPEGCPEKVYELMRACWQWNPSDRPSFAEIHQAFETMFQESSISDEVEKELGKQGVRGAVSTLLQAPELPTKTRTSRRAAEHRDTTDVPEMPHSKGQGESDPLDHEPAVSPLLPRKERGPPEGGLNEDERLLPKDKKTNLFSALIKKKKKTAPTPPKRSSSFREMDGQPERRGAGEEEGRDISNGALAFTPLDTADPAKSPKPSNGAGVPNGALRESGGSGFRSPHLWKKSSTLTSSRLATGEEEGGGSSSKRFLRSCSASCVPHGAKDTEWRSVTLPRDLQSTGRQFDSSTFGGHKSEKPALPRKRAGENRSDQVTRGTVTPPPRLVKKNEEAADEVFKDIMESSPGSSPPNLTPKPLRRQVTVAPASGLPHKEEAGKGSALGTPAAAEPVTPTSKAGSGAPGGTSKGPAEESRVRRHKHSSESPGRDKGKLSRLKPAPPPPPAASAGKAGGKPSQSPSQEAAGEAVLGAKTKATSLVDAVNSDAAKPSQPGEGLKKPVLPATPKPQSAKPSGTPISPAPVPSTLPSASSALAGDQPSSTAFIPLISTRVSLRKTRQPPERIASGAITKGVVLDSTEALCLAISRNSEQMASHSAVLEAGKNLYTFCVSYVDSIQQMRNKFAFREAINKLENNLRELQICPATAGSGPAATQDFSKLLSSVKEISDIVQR
# In short: (§1)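 Read-out is qPCR of kinase eluted from ligand-coated streptavidin beads after 1 h room-temperature competition with test compound. Values are % Ctrl at the tested concentration, lower meaning tighter binding.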
# [2] = target: T2, kinases (Homo sapiens, UniProt P10721, D816H)
# T2 construct: purchased Eurofins/DiscoveRx; host or cells: E. coli BL21-derived host (T7 phage display) for most kinases; HEK-293 for the rest
# T2 sequence (P10721 26-976 D816H): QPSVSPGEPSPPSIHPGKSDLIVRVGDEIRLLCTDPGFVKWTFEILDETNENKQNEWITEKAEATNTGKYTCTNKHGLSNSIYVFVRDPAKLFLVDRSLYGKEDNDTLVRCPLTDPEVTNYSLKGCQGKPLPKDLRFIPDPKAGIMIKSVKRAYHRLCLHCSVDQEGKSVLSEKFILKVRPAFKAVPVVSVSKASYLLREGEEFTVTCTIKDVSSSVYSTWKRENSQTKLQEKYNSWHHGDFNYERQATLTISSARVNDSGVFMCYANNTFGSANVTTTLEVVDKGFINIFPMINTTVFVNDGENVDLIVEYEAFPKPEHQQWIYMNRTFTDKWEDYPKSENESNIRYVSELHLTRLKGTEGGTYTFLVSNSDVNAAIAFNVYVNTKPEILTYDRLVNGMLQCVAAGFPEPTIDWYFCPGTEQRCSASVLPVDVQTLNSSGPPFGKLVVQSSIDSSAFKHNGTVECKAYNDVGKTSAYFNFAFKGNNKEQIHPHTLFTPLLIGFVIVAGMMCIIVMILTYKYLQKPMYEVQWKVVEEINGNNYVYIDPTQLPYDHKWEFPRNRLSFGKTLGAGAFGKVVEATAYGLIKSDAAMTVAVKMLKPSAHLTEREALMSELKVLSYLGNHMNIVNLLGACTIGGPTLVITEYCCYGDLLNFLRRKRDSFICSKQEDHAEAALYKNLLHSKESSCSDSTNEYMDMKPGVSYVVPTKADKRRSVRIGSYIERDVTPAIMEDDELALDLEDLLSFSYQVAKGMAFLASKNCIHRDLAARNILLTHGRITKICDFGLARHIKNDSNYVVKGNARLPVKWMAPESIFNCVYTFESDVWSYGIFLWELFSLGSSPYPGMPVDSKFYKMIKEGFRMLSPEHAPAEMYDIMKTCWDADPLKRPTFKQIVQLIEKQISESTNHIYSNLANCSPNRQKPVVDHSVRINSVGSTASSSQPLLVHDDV
# In short: as §1
# [3] = target: T3, kinases (Homo sapiens, UniProt P00519, E255K)
# T3 construct: purchased Eurofins/DiscoveRx; host or cells: E. coli BL21-derived host (T7 phage display) for most kinases; HEK-293 for the rest
# T3 sequence (P00519 whole entry E255K): as the sequence (P00519 whole entry F317L) above, with E255K, L317F counted along it
# In short: as §1
# [4] = target: T4, kinases (Homo sapiens, UniProt P36888, D835V)
# T4 construct: purchased Eurofins/DiscoveRx; host or cells: E. coli BL21-derived host (T7 phage display) for most kinases; HEK-293 for the rest
# T4 sequence (P36888 27-993 D835V): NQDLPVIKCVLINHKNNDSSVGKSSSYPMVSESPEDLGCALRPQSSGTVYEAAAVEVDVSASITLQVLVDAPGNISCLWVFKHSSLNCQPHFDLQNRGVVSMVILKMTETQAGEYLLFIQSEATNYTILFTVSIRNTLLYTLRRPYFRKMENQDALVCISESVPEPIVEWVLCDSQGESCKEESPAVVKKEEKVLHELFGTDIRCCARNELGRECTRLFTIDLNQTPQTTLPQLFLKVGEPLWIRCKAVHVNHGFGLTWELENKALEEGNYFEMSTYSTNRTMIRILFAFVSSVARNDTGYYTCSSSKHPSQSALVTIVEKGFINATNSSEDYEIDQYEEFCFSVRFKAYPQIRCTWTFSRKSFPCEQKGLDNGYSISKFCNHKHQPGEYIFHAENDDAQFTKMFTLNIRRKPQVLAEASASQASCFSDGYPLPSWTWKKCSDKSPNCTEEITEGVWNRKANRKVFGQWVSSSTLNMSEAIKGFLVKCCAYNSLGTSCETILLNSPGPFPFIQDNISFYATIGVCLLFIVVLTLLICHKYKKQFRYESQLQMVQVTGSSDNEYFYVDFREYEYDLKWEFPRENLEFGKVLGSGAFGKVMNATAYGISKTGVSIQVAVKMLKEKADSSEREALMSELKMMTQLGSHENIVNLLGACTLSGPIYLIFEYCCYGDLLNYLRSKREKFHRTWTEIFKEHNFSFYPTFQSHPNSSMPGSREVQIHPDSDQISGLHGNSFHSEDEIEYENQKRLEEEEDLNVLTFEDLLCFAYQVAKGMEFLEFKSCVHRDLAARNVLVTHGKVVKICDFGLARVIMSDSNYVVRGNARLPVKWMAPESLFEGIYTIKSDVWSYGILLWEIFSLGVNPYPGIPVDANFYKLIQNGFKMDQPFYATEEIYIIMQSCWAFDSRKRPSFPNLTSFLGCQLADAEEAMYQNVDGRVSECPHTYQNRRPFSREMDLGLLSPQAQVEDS
# In short: as §1
# [5] = target: T5, kinases (Homo sapiens, UniProt P36888, D835H)
# T5 construct: purchased Eurofins/DiscoveRx; host or cells: E. coli BL21-derived host (T7 phage display) for most kinases; HEK-293 for the rest
# T5 sequence (P36888 27-993 D835H): T4 sequence (P36888 27-993 D835V) with V809H
# In short: as §1
# [6] = target: T6, kinases (Homo sapiens, UniProt P00533, G719S)
# T6 construct: purchased Eurofins/DiscoveRx; host or cells: E. coli BL21-derived host (T7 phage display) for most kinases; HEK-293 for the rest
# In short: as §1
# [7] = target ABL1(F317L)-nonphosphorylated
# [8] = target ABL1(F317L)-phosphorylated
# [9] = target ABL1(E255K)-phosphorylated
SMILES,"% Ctrl, ABL1(F317L)-nonphosphorylated [1, 7] [% Ctrl]","% Ctrl, ABL1(F317L)-phosphorylated [1, 8] [% Ctrl]","% Ctrl, KIT(D816H) ([2]; target KIT(D816H)) [% Ctrl]","% Ctrl, ABL1(E255K)-phosphorylated [3, 9] [% Ctrl]","% Ctrl, FLT3(D835V) ([4]; target FLT3(D835V)) [% Ctrl]","% Ctrl, FLT3(D835H) ([5]; target FLT3(D835H)) [% Ctrl]","% Ctrl, EGFR(G719S) ([6]; target EGFR(G719S)) [% Ctrl]","% Ctrl, ABL1(F317L)-nonphosphorylated ([1]; ABL1(F317L)-nonphosphorylated) [% Ctrl]","% Ctrl, ABL1(F317L)-phosphorylated ([1]; ABL1(F317L)-phosphorylated) [% Ctrl]","% Ctrl, KIT(D816H) ([2]; KIT(D816H)) [% Ctrl]","% Ctrl, ABL1(E255K)-phosphorylated ([3]; ABL1(E255K)-phosphorylated) [% Ctrl]","% Ctrl, FLT3(D835V) ([4]; FLT3(D835V)) [% Ctrl]","% Ctrl, FLT3(D835H) ([5]; FLT3(D835H)) [% Ctrl]","% Ctrl, EGFR(G719S) ([6]; EGFR(G719S)) [% Ctrl]"
"CN1CCOCCOc2cc3c(cc2Cl)NC(=O)/C3=C\c2[nH]ccc2C1=O [Ex. 143, [16a(17)Z]-19-chloro-2,5-dimethyl-6,7,9,10-tetrahydro-1H-12,14-(ethanediylidene)dipyrrolo[3,2-i:3′,4′-l][1,4,7]oxathiazacyclopentadecine-4,16(5H,15H)-dione]",17,17,59,6.4,0.3,0.8,94,,,,,,,
"Cc1cc2c([nH]1)/C=C1\C(=O)Nc3cnc(cc31)-c1cnn(C)c1COCCNC2=O [Ex.123, [3a(4)Z]-6,14-dimethyl-10,11,13,14-tetrahydro-2H-17,1-(azenometheno)pyrazolo[4,3-m]dipyrrolo[3,2-f:3′,4′-i][1,4]oxazacyclopentadecine-3,8(5H,9H)-dione]",,,,,,,,100,100,100,92,91,88,94
"Cc1cc2c([nH]1)/C=C1\C(=O)Nc3ccc(nc31)-c1ccccc1OCCCNC2=O [Ex.22, [3a(4)Z]-6-methyl-9,10,11,12-tetrahydro-1,18-(ethanediylidene)dipyrrolo[3,2-g:3′,4′-j][1,5,12]benzoxadiazacyclopentadecine-3,8(2H,5H)-dione]",,,,,,,,82,100,100,67,35,89,95
"Cc1cc2c([nH]1)/C=C1\C(=O)Nc3ccc(cc31)-c1ccnn1CCOCCNC2=O [Ex.39, [19a(20)Z]-2-methyl-6,7,9,10-tetrahydro-1H-15,17-(ethanediylidene)pyrazolo[1,5-d]dipyrrolo[3,4-h:2′,3′-k][1,4,14]oxadiazacyclohexadecine-4,19(5H,18H)-dione]",,,,,,,,98,60,83,72,35,85,77
"Cc1nn(C)c2c1-c1ccc3c(c1)/C(=C/c1[nH]ccc1C(=O)N(C)CCCO2)C(=O)N3 [Ex. 150, [3a(4)Z]-9,14,16-trimethyl-10,11,13,14-tetrahydro-2H-1,17-(ethanediylidene)pyrazolo[4,3-m]dipyrrolo[3,2-f:3′,4′-i][1,4]oxazacyclopentadecine-3,8(5H,9H)-dione]",87,82,87,95,13,62,8,,,,,,,
"Cc1cc2c([nH]1)/C=C1\C(=O)Nc3ccc(cc31)-c1cnn(C)c1CN(C)CCN(C)C2=O [Ex. 126, [3a(4)Z]-6,9,12,14-tetramethyl-9,10,11,12,13,14-hexahydro-1,17-(ethanediylidene)pyrazolo[4,3-m]dipyrrolo[3,2-f:3′,4′-i][1,4]diazacyclopentadecine-3,8(2H,5H)-dione]",,,,,,,,1.7,0,0,0.55,0,0.05,57

# Second part, the compound after the results:
"% Ctrl, ABL1(F317L)-nonphosphorylated [1, 7] [% Ctrl]","% Ctrl, ABL1(F317L)-phosphorylated [1, 8] [% Ctrl]","% Ctrl, KIT(D816H) ([2]; target KIT(D816H)) [% Ctrl]","% Ctrl, ABL1(E255K)-phosphorylated [3, 9] [% Ctrl]","% Ctrl, FLT3(D835V) ([4]; target FLT3(D835V)) [% Ctrl]","% Ctrl, FLT3(D835H) ([5]; target FLT3(D835H)) [% Ctrl]","% Ctrl, EGFR(G719S) ([6]; target EGFR(G719S)) [% Ctrl]","% Ctrl, ABL1(F317L)-nonphosphorylated ([1]; ABL1(F317L)-nonphosphorylated) [% Ctrl]","% Ctrl, ABL1(F317L)-phosphorylated ([1]; ABL1(F317L)-phosphorylated) [% Ctrl]","% Ctrl, KIT(D816H) ([2]; KIT(D816H)) [% Ctrl]","% Ctrl, ABL1(E255K)-phosphorylated ([3]; ABL1(E255K)-phosphorylated) [% Ctrl]","% Ctrl, FLT3(D835V) ([4]; FLT3(D835V)) [% Ctrl]","% Ctrl, FLT3(D835H) ([5]; FLT3(D835H)) [% Ctrl]","% Ctrl, EGFR(G719S) ([6]; EGFR(G719S)) [% Ctrl]",SMILES
,,,,,,,62,57,56,50,3.9,35,92,"Cc1cc2c([nH]1)/C=C1\C(=O)Nc3cc(Cl)c(cc31)OCCO[C@@H](C(=O)NC1CCNCC1)CN(C)C2=O [Ex. 134, [7R,16a(17)Z]-19-chloro-2,5-dimethyl-4,16-dioxo-N-(piperidin-4-yl)-4,5,6,7,9,10,15,16-octahydro-1H-12,14-(ethaneidylidene)dipyrrolo[3,2-i:3′,4′-l][1,4,7]dioxazacyclopentadecine-7-carboxamide]"
,,,,,,,77,88,43,70,2.3,39,99,"Cc1cc2c([nH]1)/C=C1\C(=O)Nc3cc(Cl)c(cc31)OCCO[C@@H](C(=O)NC1CNC1)CN(C)C2=O [Ex. 133, [7R,16a(17)Z]-N-(azetidin-3-yl)-19-chloro-2,5-dimethyl-4,16-dioxo-4,5,6,7,9,10,15,16-octahydro-1H-12,14-(ethanediylidene)dipyrrolo[3,2-i:3′,4′-l][1,4,7]dioxazacyclopentadecine-7-carboxamide]"
69,75,82,61,18,73,95,,,,,,,,"Cc1cc2c([nH]1)/C=C1\C(=O)Nc3cc(Cl)c(cc31)OCCO[C@@H](C(=O)N1CCN(C)CC1)CN(C)C2=O [Ex. 138, [7R,16a(17)Z]-19-chloro-2,5-dimethyl-7-(4-methylpipearazine-1-carbonyl)-6,7,9,10-tetrahydro-1H-12,14-(ethanediylidene)dipyrrolo[3,2-i:3′,4′-l][1,4,7]dioxazacyclopentadecine-4,16(5H,15H)-dione]"
